Results: article PMC4142866, “The chemoenzymatic synthesis of clofarabine and related 2′-deoxyfluoroarabinosyl nucleosides: the electronic and stereochemical factors determining substrate recognition by E. coli nucleoside phosphorylases” (Beilstein Journal of Organic Chemistry, 2014)

Target: T1, recombinant E. coli purine nucleoside phosphorylase (PNP) (Escherichia coli, UniProt P0ABP8)
T1 construct: gene deoD
T1 sequence (P0ABP8 2-239): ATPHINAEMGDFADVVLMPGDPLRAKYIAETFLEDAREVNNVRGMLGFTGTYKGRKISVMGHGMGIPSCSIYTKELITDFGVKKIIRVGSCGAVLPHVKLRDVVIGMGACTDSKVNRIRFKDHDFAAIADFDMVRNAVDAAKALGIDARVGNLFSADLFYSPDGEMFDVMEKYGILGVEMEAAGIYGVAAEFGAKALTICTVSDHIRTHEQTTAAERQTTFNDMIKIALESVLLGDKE
Assay: inhibition of PNP nucleoside synthesis
Assay type: biochemical
Conditions: not a substrate; moderate inhibitor of the synthetic reaction; no value

SMILES | inhibition of PNP nucleoside synthesis
Nc1nc(=O)n2ccn([C@@H]3O[C@H](CO)[C@@H](O)[C@@H]3O)c2n1 [4b, arabinoside 4b] | nucleosides 4b and 5b are not substrates for E. coli PNP and moderately inhibit
O=c1[nH]cnc2c1cnn2[C@@H]1O[C@H](CO)[C@@H](O)[C@@H]1O [5b, arabinoside 5b] | nucleosides 4b and 5b are not substrates for E. coli PNP and moderately inhibit
